From patent US12227495B2, “Herbicidal compounds” (SYNGENTA CROP PROTECTION AG, priority 2018, dated 2025)

Columns and labels:
Type in all cases: in vivo
[1] = system: Echinochloa crus-galli (ECHCG); assay: Pre-emergence herbicide test, glasshouse, percentage damage; settings: rate 1000 g/ha, evaluated after 13 days
Summary of the method: (§1)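 Pot-grown plants were sprayed at 500 g/ha unless otherwise stated, in acetone/water (50:50) with 0.5% Tween 20. Pre-emergence spraying was 1 day after sowing and post-emergence after 8 days, in a glasshouse at 24/16° C, 14 h light, 65% humidity. Percentage damage was scored 13 days later on a 1–5 scale (5=81-100%).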

Lolium perenne (LOLPE) [2] = assay: as above; settings: rate 1000 g/ha, evaluated after 13 days
Summary of the method: as §1

[3] = system: Amaranthus retoflexus (AMARE); assay: as above; settings: rate 1000 g/ha, evaluated after 13 days
Summary of the method: as §1

Setaria faberi (SETFA) [4] = assay: as above; settings: rate 1000 g/ha, evaluated after 13 days
Summary of the method: as §1

Solanum nigrum (SOLNI) [5] = assay: as above; settings: rate 1000 g/ha, evaluated after 13 days
Summary of the method: as §1

[6] = system: Ipomoea hederacea (IPOHE); assay: as above; settings: rate 1000 g/ha, evaluated after 13 days
Summary of the method: as §1

[7] = system: Echinochloa crus-galli (ECHCG); assay: Post-emergence herbicide test, glasshouse, percentage damage; settings: 1000 g/ha, evaluated after 13 days
Summary of the method: as §1

Lolium perenne (LOLPE) [8] = assay: as above; settings: 1000 g/ha, evaluated after 13 days
Summary of the method: as §1

[9] = system: Amaranthus retoflexus (AMARE); assay: as above; settings: 1000 g/ha, evaluated after 13 days
Summary of the method: as §1

Setaria faberi (SETFA) [10] = assay: as above; settings: 1000 g/ha, evaluated after 13 days
Summary of the method: as §1

Solanum nigrum (SOLNI) [11] = assay: as above; settings: 1000 g/ha, evaluated after 13 days
Summary of the method: as §1

[12] = system: Ipomoea hederacea (IPOHE); assay: as above; settings: 1000 g/ha, evaluated after 13 days
Summary of the method: as §1

N#Cc1cccnc1Oc1cccc(Br)c1-c1cc(C(F)F)no1 [Compound A107]
Pre-emergence Test ECHCG percentage damage (five point scale) [1]: 4 (4=61-80%) | Pre-emergence Test LOLPE percentage damage (five point scale) (Lolium perenne (LOLPE) [2]): 2 (2=21-40%) | Pre-emergence Test AMARE percentage damage (five point scale) [3]: 5 (5=81-100%) | Pre-emergence Test SETFA percentage damage (five point scale) (Setaria faberi (SETFA) [4]): 5 (5=81-100%) | Pre-emergence Test SOLNI percentage damage (five point scale) (Solanum nigrum (SOLNI) [5]): 2 (2=21-40%) | Pre-emergence Test IPOHE percentage damage (five point scale) [6]: 3 (3=41-60%) | percentage damage caused to the plant, ECHCG [7]: 4 (4=61-80%) | percentage damage caused to the plant, LOLPE (Lolium perenne (LOLPE) [8]): 3 (3=41-60%) | percentage damage caused to the plant, AMARE [9]: 5 (5=81-100%) | percentage damage caused to the plant, SETFA (Setaria faberi (SETFA) [10]): 5 (5=81-100%) | percentage damage caused to the plant, SOLNI (Solanum nigrum (SOLNI) [11]): 5 (5=81-100%) | percentage damage caused to the plant, IPOHE [12]: 4 (4=61-80%)

O=[N+]([O-])c1ccc(Oc2cccc(Cl)c2-c2cc(C(F)F)no2)nc1 [Compound A108]
Pre-emergence Test ECHCG percentage damage (five point scale) [1]: 5 (5=81-100%) | Pre-emergence Test LOLPE percentage damage (five point scale) (Lolium perenne (LOLPE) [2]): 5 (5=81-100%) | Pre-emergence Test AMARE percentage damage (five point scale) [3]: 4 (4=61-80%) | Pre-emergence Test SETFA percentage damage (five point scale) (Setaria faberi (SETFA) [4]): 5 (5=81-100%) | Pre-emergence Test SOLNI percentage damage (five point scale) (Solanum nigrum (SOLNI) [5]): 4 (4=61-80%) | Pre-emergence Test IPOHE percentage damage (five point scale) [6]: 1 (1=0-20%) | percentage damage caused to the plant, ECHCG [7]: 4 (4=61-80%) | percentage damage caused to the plant, LOLPE (Lolium perenne (LOLPE) [8]): 4 (4=61-80%) | percentage damage caused to the plant, AMARE [9]: 5 (5=81-100%) | percentage damage caused to the plant, SETFA (Setaria faberi (SETFA) [10]): 4 (4=61-80%) | percentage damage caused to the plant, SOLNI (Solanum nigrum (SOLNI) [11]): 4 (4=61-80%) | percentage damage caused to the plant, IPOHE [12]: 3 (3=41-60%)

FC(F)c1cc(-c2c(Cl)cccc2Oc2ncc(Cl)cc2Cl)on1 [Compound A109]
Pre-emergence Test ECHCG percentage damage (five point scale) [1]: 2 (2=21-40%) | Pre-emergence Test LOLPE percentage damage (five point scale) (Lolium perenne (LOLPE) [2]): 2 (2=21-40%) | Pre-emergence Test AMARE percentage damage (five point scale) [3]: 4 (4=61-80%) | Pre-emergence Test SETFA percentage damage (five point scale) (Setaria faberi (SETFA) [4]): 4 (4=61-80%) | Pre-emergence Test SOLNI percentage damage (five point scale) (Solanum nigrum (SOLNI) [5]): 3 (3=41-60%) | Pre-emergence Test IPOHE percentage damage (five point scale) [6]: 1 (1=0-20%) | percentage damage caused to the plant, ECHCG [7]: 4 (4=61-80%) | percentage damage caused to the plant, LOLPE (Lolium perenne (LOLPE) [8]): 3 (3=41-60%) | percentage damage caused to the plant, AMARE [9]: 5 (5=81-100%) | percentage damage caused to the plant, SETFA (Setaria faberi (SETFA) [10]): 5 (5=81-100%) | percentage damage caused to the plant, SOLNI (Solanum nigrum (SOLNI) [11]): 5 (5=81-100%) | percentage damage caused to the plant, IPOHE [12]: 4 (4=61-80%)

FC(F)c1cc(-c2c(Cl)cccc2Oc2ccc(C(F)(F)F)cn2)on1 [Compound A110]
Pre-emergence Test ECHCG percentage damage (five point scale) [1]: 4 (4=61-80%) | Pre-emergence Test LOLPE percentage damage (five point scale) (Lolium perenne (LOLPE) [2]): 4 (4=61-80%) | Pre-emergence Test AMARE percentage damage (five point scale) [3]: 5 (5=81-100%) | Pre-emergence Test SETFA percentage damage (five point scale) (Setaria faberi (SETFA) [4]): 5 (5=81-100%) | Pre-emergence Test SOLNI percentage damage (five point scale) (Solanum nigrum (SOLNI) [5]): 4 (4=61-80%) | Pre-emergence Test IPOHE percentage damage (five point scale) [6]: 4 (4=61-80%) | percentage damage caused to the plant, ECHCG [7]: 4 (4=61-80%) | percentage damage caused to the plant, LOLPE (Lolium perenne (LOLPE) [8]): 4 (4=61-80%) | percentage damage caused to the plant, AMARE [9]: 5 (5=81-100%) | percentage damage caused to the plant, SETFA (Setaria faberi (SETFA) [10]): 5 (5=81-100%) | percentage damage caused to the plant, SOLNI (Solanum nigrum (SOLNI) [11]): 5 (5=81-100%) | percentage damage caused to the plant, IPOHE [12]: 4 (4=61-80%)

Fc1cccc(Oc2cccc(Cl)c2-c2cc(C(F)F)no2)n1 [Compound A111]
Pre-emergence Test ECHCG percentage damage (five point scale) [1]: 5 (5=81-100%) | Pre-emergence Test LOLPE percentage damage (five point scale) (Lolium perenne (LOLPE) [2]): 4 (4=61-80%) | Pre-emergence Test AMARE percentage damage (five point scale) [3]: 5 (5=81-100%) | Pre-emergence Test SETFA percentage damage (five point scale) (Setaria faberi (SETFA) [4]): 5 (5=81-100%) | Pre-emergence Test SOLNI percentage damage (five point scale) (Solanum nigrum (SOLNI) [5]): 4 (4=61-80%) | Pre-emergence Test IPOHE percentage damage (five point scale) [6]: 1 (1=0-20%) | percentage damage caused to the plant, ECHCG [7]: 4 (4=61-80%) | percentage damage caused to the plant, LOLPE (Lolium perenne (LOLPE) [8]): 4 (4=61-80%) | percentage damage caused to the plant, AMARE [9]: 5 (5=81-100%) | percentage damage caused to the plant, SETFA (Setaria faberi (SETFA) [10]): 5 (5=81-100%) | percentage damage caused to the plant, SOLNI (Solanum nigrum (SOLNI) [11]): 5 (5=81-100%) | percentage damage caused to the plant, IPOHE [12]: 4 (4=61-80%)

FC(F)c1cc(-c2c(Cl)cccc2Oc2cc(C(F)(F)F)ccn2)on1 [Compound A112]
Pre-emergence Test ECHCG percentage damage (five point scale) [1]: 4 (4=61-80%) | Pre-emergence Test LOLPE percentage damage (five point scale) (Lolium perenne (LOLPE) [2]): 3 (3=41-60%) | Pre-emergence Test AMARE percentage damage (five point scale) [3]: 5 (5=81-100%) | Pre-emergence Test SETFA percentage damage (five point scale) (Setaria faberi (SETFA) [4]): 5 (5=81-100%) | Pre-emergence Test SOLNI percentage damage (five point scale) (Solanum nigrum (SOLNI) [5]): 2 (2=21-40%) | Pre-emergence Test IPOHE percentage damage (five point scale) [6]: 1 (1=0-20%) | percentage damage caused to the plant, ECHCG [7]: 3 (3=41-60%) | percentage damage caused to the plant, LOLPE (Lolium perenne (LOLPE) [8]): 3 (3=41-60%) | percentage damage caused to the plant, AMARE [9]: 4 (4=61-80%) | percentage damage caused to the plant, SETFA (Setaria faberi (SETFA) [10]): 4 (4=61-80%) | percentage damage caused to the plant, SOLNI (Solanum nigrum (SOLNI) [11]): 4 (4=61-80%) | percentage damage caused to the plant, IPOHE [12]: 3 (3=41-60%)

FC(F)c1cc(-c2c(Cl)cccc2Oc2ccc(Cl)cn2)on1 [Compound A113]
Pre-emergence Test ECHCG percentage damage (five point scale) [1]: 5 (5=81-100%) | Pre-emergence Test LOLPE percentage damage (five point scale) (Lolium perenne (LOLPE) [2]): 5 (5=81-100%) | Pre-emergence Test AMARE percentage damage (five point scale) [3]: 5 (5=81-100%) | Pre-emergence Test SETFA percentage damage (five point scale) (Setaria faberi (SETFA) [4]): 5 (5=81-100%) | Pre-emergence Test SOLNI percentage damage (five point scale) (Solanum nigrum (SOLNI) [5]): 4 (4=61-80%) | Pre-emergence Test IPOHE percentage damage (five point scale) [6]: 4 (4=61-80%) | percentage damage caused to the plant, ECHCG [7]: 4 (4=61-80%) | percentage damage caused to the plant, LOLPE (Lolium perenne (LOLPE) [8]): 5 (5=81-100%) | percentage damage caused to the plant, AMARE [9]: 5 (5=81-100%) | percentage damage caused to the plant, SETFA (Setaria faberi (SETFA) [10]): 5 (5=81-100%) | percentage damage caused to the plant, SOLNI (Solanum nigrum (SOLNI) [11]): 4 (4=61-80%) | percentage damage caused to the plant, IPOHE [12]: 5 (5=81-100%)

Fc1cnc(Oc2cccc(Cl)c2-c2cc(C(F)F)no2)c(F)c1 [Compound A114]
Pre-emergence Test ECHCG percentage damage (five point scale) [1]: 5 (5=81-100%) | Pre-emergence Test LOLPE percentage damage (five point scale) (Lolium perenne (LOLPE) [2]): 5 (5=81-100%) | Pre-emergence Test AMARE percentage damage (five point scale) [3]: 5 (5=81-100%) | Pre-emergence Test SETFA percentage damage (five point scale) (Setaria faberi (SETFA) [4]): 5 (5=81-100%) | Pre-emergence Test SOLNI percentage damage (five point scale) (Solanum nigrum (SOLNI) [5]): 4 (4=61-80%) | Pre-emergence Test IPOHE percentage damage (five point scale) [6]: 5 (5=81-100%) | percentage damage caused to the plant, ECHCG [7]: 4 (4=61-80%) | percentage damage caused to the plant, LOLPE (Lolium perenne (LOLPE) [8]): 4 (4=61-80%) | percentage damage caused to the plant, AMARE [9]: 5 (5=81-100%) | percentage damage caused to the plant, SETFA (Setaria faberi (SETFA) [10]): 5 (5=81-100%) | percentage damage caused to the plant, SOLNI (Solanum nigrum (SOLNI) [11]): 5 (5=81-100%) | percentage damage caused to the plant, IPOHE [12]: 5 (5=81-100%)
